The results in this text go back to patent publication US10800755B2, “2,6-disubstituted pyridine derivative” (Sumitomo Dainippon Pharma Co., Ltd., priority 2017, dated 2020).

Series [1] concerns the target T1, human 5-HT1A receptor (Homo sapiens (Human), UniProt P08908). The series can be described thus: Test 1: agonistic activity for human 5-HT1A receptor (aequorin/Gα16 luminescence in CHO-K1 cell). Format: cell-based. As to conditions: for Emax: CHO-K1; for Emax / 5-HT1A agonistic activity Emax: 100% = 10 μmol/L endogenous ligand; for EC50: CHO-K1 cell, aequorin luminescence. The procedure: (§1) Test 1: Evaluation of Agonistic Activity for Human 5-HT1A Receptor and Human D4 Receptor
(§2) Aequorin, Gα16 proteins, and each receptor were transiently expressed in CHO-K1 cell (Chinese hamster ovary), and seeded to 384-well plate. The plate was incubated in a CO2 incubator at 37° C. for 24 hours. Each example compound dissolved in DMSO was added thereto, and the change of luminescence amount was measured with Hamamatsu FDSS/μCELL System (Hamamatsu Photonics).

The target of series [2] is T2, human D4 receptor (Homo sapiens (Human), UniProt P21917). The series can be described thus: Test 1: agonistic activity for human D4 receptor (aequorin/Gα16 luminescence in CHO-K1 cell). As to conditions: for Emax: CHO-K1; for Emax / D4 agonistic activity Emax: 100% = 10 μmol/L endogenous ligand; for EC50: CHO-K1 cell, aequorin luminescence. The format is cell-based. As to the method: as §1, §2
T2 sequence (P21917 whole entry): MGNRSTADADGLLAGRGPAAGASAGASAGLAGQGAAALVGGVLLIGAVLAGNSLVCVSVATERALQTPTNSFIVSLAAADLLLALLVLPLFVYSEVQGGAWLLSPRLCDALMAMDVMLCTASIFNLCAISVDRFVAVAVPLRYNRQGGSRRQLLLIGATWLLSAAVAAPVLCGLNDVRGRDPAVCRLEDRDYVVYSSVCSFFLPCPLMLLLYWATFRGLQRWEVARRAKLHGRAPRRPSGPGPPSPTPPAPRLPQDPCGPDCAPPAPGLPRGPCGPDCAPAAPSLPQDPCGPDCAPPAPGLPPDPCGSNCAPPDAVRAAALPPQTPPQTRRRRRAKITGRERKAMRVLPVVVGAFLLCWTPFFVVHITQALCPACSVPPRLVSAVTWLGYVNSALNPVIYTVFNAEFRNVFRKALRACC

Series [3] concerns the target T1, human 5-HT1A receptor. The series can be described thus: Test 2: binding activity to human 5-HT1A receptor ([3H] 8-OH-DPAT, CHO cell membrane). As to conditions: [3H] 8-OH-DPAT; read-out: 5-HT1A binding affinity (Ki value). As to the method:
(§3) Test 2: Evaluation of Binding Activity to Human 5-HT1A Receptor, Human D4 Receptor, and Human D2 Receptor
(§4) CHO cell membrane fraction in which human 5-HT1A receptor, human D4 receptor, and human D2 receptor were expressed was purchased from PerkinElmer Co., Ltd. In the evaluation test of binding, the test compound dissolved in DMSO, each receptor membrane preparation diluted with buffer solution, and [3H] […] The nonspecific binding to each receptor was evaluated by a competition binding experiment in the presence of 10 μmol/L 8-OH-DPAT, 10 μmol/L dopamine, or 10 μmol/L spiperone, respectively.

Series [4] has as its target T2, human D4 receptor. As to the kind of experiment: Test 2: binding activity to human D4 receptor ([3H] dopamine, CHO cell membrane). As to the method: as §3, §4
In another series the target is human D2 receptor (Homo sapiens (Human), UniProt P14416). As to the kind of experiment: Test 2: binding activity to human D2 receptor ([3H] spiperone, CHO cell membrane). As to conditions: [3H] spiperone; read-out: D2 binding affinity (Ki value). As to the method: as §3, §4
human D2 receptor, sequence (P14416 whole entry): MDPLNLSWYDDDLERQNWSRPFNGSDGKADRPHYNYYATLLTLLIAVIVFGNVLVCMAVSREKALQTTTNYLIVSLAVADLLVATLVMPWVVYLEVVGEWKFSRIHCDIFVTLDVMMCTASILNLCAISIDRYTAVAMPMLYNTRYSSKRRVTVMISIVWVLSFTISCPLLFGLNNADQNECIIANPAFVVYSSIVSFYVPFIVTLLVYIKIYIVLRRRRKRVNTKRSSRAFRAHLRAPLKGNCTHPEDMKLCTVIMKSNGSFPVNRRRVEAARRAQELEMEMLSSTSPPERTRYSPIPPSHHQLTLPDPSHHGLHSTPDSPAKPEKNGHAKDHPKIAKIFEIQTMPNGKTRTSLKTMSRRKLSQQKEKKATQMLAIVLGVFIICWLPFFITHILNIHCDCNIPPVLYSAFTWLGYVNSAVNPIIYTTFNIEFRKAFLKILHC
Series [5] can be described thus: Test 3-1: metabolic stability test of human liver microsome (0.1 mg/mL). Format: in vitro ADME. As to conditions: test compound 0.1 μmol/L, 37° C., 30 minutes. As to the method:
Test 3-1: Metabolic Stability Test of Human Liver Microsome
The stability of the present compounds for human liver microsome metabolism was evaluated as mentioned below. The used human liver microsome was obtained from Xenontech. Human liver microsome, NADPH, and each test compound were mixed in 25 mmol/L phosphate buffer solution (pH 7.4) to adjust each concentration as shown below, and the mixture was incubated at 37° C. for 30 minutes. • human liver microsome: 0.1 mg/mL • NAPDH: 3.2 mmol/L • test compound: 0.1 μmol/L
The residual ratio of the test compound in each sample after the incubation for 30 minutes was measured with a LC-MS, and the metabolic stability of human liver microsome was calculated about each test compound with the following formula. Metabolic stability of human liver microsome (mL/min/mg protein)=−LN (residual ratio)/“reaction time”/“concentration of human liver microsome”
In general terms: Microsomes from liver hold many membrane-bound enzymes, among them those of drug oxidation.

The target of a further series is hERG channel (Homo sapiens (Human), UniProt Q12809). As to the kind of experiment: Test 5-2: activity for inhibiting hERG channel (whole-cell patch clamp, hERG-CHO cell, Qube). The format is cell-based. As to conditions: read-out: hERG inhibition IC50. The procedure: Test 5-2: Evaluation of Activity for Inhibiting hERG Channel
hERG channel, sequence (Q12809 whole entry): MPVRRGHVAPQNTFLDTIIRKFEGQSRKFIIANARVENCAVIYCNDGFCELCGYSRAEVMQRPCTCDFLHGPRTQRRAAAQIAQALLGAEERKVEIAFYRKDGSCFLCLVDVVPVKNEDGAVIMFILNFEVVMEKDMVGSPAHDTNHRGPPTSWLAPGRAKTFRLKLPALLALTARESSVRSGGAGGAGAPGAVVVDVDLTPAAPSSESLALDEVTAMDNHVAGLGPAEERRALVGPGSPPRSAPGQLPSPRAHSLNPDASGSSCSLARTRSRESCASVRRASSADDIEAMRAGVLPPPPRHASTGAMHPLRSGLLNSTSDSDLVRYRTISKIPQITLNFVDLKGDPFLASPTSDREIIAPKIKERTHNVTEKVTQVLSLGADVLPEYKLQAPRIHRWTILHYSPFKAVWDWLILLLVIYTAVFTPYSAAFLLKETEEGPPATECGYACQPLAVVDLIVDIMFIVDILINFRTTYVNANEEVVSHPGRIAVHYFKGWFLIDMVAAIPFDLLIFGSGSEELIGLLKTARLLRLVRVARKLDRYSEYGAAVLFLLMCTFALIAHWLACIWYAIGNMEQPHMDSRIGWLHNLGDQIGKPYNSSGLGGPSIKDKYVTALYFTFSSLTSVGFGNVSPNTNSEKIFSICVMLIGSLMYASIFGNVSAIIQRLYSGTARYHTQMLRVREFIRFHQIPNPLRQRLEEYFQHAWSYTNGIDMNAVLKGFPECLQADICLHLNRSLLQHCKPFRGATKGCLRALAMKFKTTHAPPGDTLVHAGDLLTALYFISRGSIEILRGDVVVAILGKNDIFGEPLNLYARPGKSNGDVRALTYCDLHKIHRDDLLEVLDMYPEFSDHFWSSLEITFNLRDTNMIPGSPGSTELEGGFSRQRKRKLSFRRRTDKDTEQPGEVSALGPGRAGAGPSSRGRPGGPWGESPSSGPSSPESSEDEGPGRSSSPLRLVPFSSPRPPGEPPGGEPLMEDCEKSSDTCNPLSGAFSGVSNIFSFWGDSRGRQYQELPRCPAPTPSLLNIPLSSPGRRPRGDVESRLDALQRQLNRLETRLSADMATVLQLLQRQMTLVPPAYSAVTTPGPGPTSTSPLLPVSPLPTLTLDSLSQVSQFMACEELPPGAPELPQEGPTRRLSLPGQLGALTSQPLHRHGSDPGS
The activity of the present compound for inhibiting hERG channel was measured by whole-cell patch clamp method with auto patch clamp system, using CHO cell wherein hERG channel involved in human rapidly activating delayed rectifier potassium current (IKr) was forcibly expressed.
hERG-CHO cell purchased from ChanTest was incubated at 37° C. in a CO2 incubator, and the cell was exfoliated from the flask with trypsin to prepare a cell suspension, shortly before the hERG current measurement.
Extracellular fluid: 2 mmol/L CaCl2, 1 mmol/L MgCl2, 10 mmol/L HEPES, 4 mmol/L KCl, 145 mmol/L NaCl, 10 mmol/L glucose
Intracellular fluid: 10 mmol/L HEPES, 10 mmol/L EGTA, 20 mmol/L KCl, 130 mmol/L KF
Test compound solution: The compound was dissolved in DMSO by adjusting the concentration to 2 mmol/L or 20 mmol/L to prepare each test compound solution. […] (Measurement of Current Value and Data Analysis)
The cell suspension, the extracellular fluid, the intracellular fluid, and the measurement plate were set in an auto patch clamp system, and the hERG current was measured by whole-cell patch clamp method. The voltage-protocol was as follows: the holding potential was adjusted to −80 mV, the depolarizing pulse was added at −50 mV to +20 mV for 5 seconds, the repolarizing pulse was added at −50 mV for 5 seconds, then the potential was returned to the holding potential. Each pulse interval was 15 seconds. The data analysis was carried out with Qube Assay Software (Sophion Scientific). The test was carried out applying increscently 4 concentrations of each test compound, and the average of the peak tail currents that were obtained by the last 3 stimulations in each applied concentration was made to be the evaluated data. By using the current inhibition rate for the pre-applied current at each concentration of each test compound, IC50 value was calculated by Hill equation with the software.
Background: hERG is a cardiac potassium channel; its block is linked to QT prolongation.

Where [6] appears, read: [3H] dopamine, read-out: D4 binding affinity (Ki value).

What is called Emax is the greatest response seen or fitted, relative to the assay's reference. What is called EC50 is the midpoint of the concentration-response curve. By Ki is commonly meant a dissociation constant, usually derived from enzyme kinetics or from competition with a known ligand. As a reminder, the IC50 is the point on the concentration scale where inhibition reaches its midpoint.

Structures are written as SMILES. Like-named read-outs stand apart in the source and are kept apart here.

T1 sequence (P08908 whole entry): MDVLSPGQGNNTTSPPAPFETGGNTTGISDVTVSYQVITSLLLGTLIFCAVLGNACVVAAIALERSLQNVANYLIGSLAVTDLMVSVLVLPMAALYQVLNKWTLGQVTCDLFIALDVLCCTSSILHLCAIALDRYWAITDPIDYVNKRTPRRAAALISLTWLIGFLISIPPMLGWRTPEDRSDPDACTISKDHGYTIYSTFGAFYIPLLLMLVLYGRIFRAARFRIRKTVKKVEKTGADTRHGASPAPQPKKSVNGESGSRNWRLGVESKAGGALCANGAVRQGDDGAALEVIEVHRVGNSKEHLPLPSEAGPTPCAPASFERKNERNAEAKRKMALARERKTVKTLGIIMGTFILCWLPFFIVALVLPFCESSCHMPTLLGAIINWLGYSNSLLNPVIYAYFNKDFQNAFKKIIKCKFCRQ

For `O=C(NCCN1CCC(c2cccc(C(F)F)n2)CC1)C1CCOCC1` [Example 34], the Emax on human 5-HT1A receptor [1] was 42%; at human D4 receptor [2], 55%. Also, the EC50 on human 5-HT1A receptor [1] is 22 nM; on human D4 receptor [2] it was 15 nM. Besides, the Ki at human 5-HT1A receptor [3] is 10 nM; at human D4 receptor [4] (setting [6]), 56 nM; at human D2 receptor, above 10000 nM. Moreover, in series [5], the “Metabolic stability of human liver microsome” value (shortened to “Metabolic stability”) is reported as below 0.05 mL/min/mg protein. In addition, at hERG channel, the IC50 stood at 5500 nM.
As to `Cc1cccc(C2=CCN(CCNC(=O)C(C)(C)C)CC2)n1` [Example 30, 2,2-Dimethyl-N-[2-(6-methyl-3′,6′-dihydro[2,4′-bipyridin]-1′ (2′H)-yl)ethyl]propanamide], the Emax at human 5-HT1A receptor [1] came to 36%; on human D4 receptor [2], 59%. For the same molecule, the EC50 was 27 nM on human 5-HT1A receptor [1] and below 10 nM at human D4 receptor [2]. The values for the Ki at human 5-HT1A receptor [3], on human D4 receptor [4] and at human D2 receptor were 1.4 nM, 14 nM and above 10000 nM, respectively. Further, the “Metabolic stability” value in series [5] is recorded as 0.114 mL/min/mg protein. Further, the IC50 on hERG channel was above 10000 nM.
For the molecule `COCC(C)(C)C(=O)NCCN1CCC(c2cccc(C(F)(F)F)n2)CC1` [Example 6], on human 5-HT1A receptor [1], the “5-HT1A agonistic activity Emax” value is on record as 96%. Besides, the values for the EC50 at human 5-HT1A receptor [1] and on human D4 receptor [2] were 44 nM and below 10 nM, respectively. In addition, the “D4 agonistic activity Emax” value on human D4 receptor [2] came to 58%. The Ki on human 5-HT1A receptor [3] was 37 nM; at human D4 receptor [4] (setting [6]), 101 nM; at human D2 receptor, above 10000 nM. The “Metabolic stability” value in series [5] is below 0.01 mL/min/mg protein.
With `Cc1cccc(C2=CCN(CCNC(=O)C3CCC(F)(F)CC3)CC2)n1` [Example 14], the Emax on human 5-HT1A receptor [1] turned out to be 41%; at human D4 receptor [2], 53%. The EC50 on human 5-HT1A receptor [1] and at human D4 receptor [2] was below 10 nM each time. Besides, the inhibition constant (Ki) worked out at 0.1 nM on human 5-HT1A receptor [3], 3 nM at human D4 receptor [4] and 2440 nM at human D2 receptor. Further, the “Metabolic stability” value in series [5] turned out to be 0.084 mL/min/mg protein. In addition, the IC50 at hERG channel was 8100 nM.
Turning to `CC(C)(C)C(=O)NCCN1CC=C(c2cccc(C(F)(F)F)n2)CC1` [Example 31, 2,2-Dimethyl-N-{2-[6-(trifluoromethyl)-3′,6′-dihydro[2,4′-bipyridin]-1′ (2′H)-yl]ethyl}propanamide], the Emax at human 5-HT1A receptor [1] came to 40%; on human D4 receptor [2], 52%. The EC50 at human 5-HT1A receptor [1] is 35 nM; at human D4 receptor [2], below 10 nM. The Ki on human 5-HT1A receptor [3] turned out to be 0.3 nM; on human D4 receptor [4] it was 2.9 nM; on human D2 receptor, 1280 nM. For the same molecule, the “Metabolic stability” value in series [5] is on record as below 0.05 mL/min/mg protein. Further, the IC50 on hERG channel is above 10000 nM.
Regarding `Cc1cccc(C2=CCN(CCNC(=O)C3CCOCC3)CC2)n1` [Example 29, N-[2-(6-Methyl-3′,6′-dihydro[2,4′-bipyridin]-1′(2′H)-yl)ethyl]-tetrahydro-2H-pyran-4-carboxamide], the Emax was found to be 50% on human 5-HT1A receptor [1] and 74% at human D4 receptor [2]. The results for the EC50 on human 5-HT1A receptor [1] and on human D4 receptor [2] were below 10 nM and 24 nM, respectively. In addition, the Ki is 0.4 nM on human 5-HT1A receptor [3], 22 nM on human D4 receptor [4] and above 10000 nM at human D2 receptor. Besides, the “Metabolic stability” value in series [5] is on record as below 0.05 mL/min/mg protein. For the same molecule, the IC50 at hERG channel is above 10000 nM.
`COCC(C)(C)C(=O)NCCN1CCC(c2cccc(C)n2)CC1` [Example 5]: the “5-HT1A agonistic activity Emax” value on human 5-HT1A receptor [1] came to 100%. Besides, the results for the EC50 at human 5-HT1A receptor [1] and at human D4 receptor [2] were 42 nM and 55.8 nM, respectively. Besides, the “D4 agonistic activity Emax” value at human D4 receptor [2] came out at 57%. Besides, the Ki at human 5-HT1A receptor [3] is 80 nM; on human D4 receptor [4] (setting [6]), 170 nM; at human D2 receptor, above 10000 nM. For the same molecule, the “Metabolic stability” value in series [5] was below 0.01 mL/min/mg protein.
`CO[C@H]1CC[C@H](C(=O)NCCN2CCC(c3cccc(C)n3)CC2)CC1` [Example 26]: the Emax at human 5-HT1A receptor [1] is 43%; on human D4 receptor [2], 36%. In addition, the EC50 stood at 395 nM on human 5-HT1A receptor [1] and 3390 nM at human D4 receptor [2]. Also, the Ki was 79 nM at human 5-HT1A receptor [3], 1900 nM at human D4 receptor [4] (setting [6]) and above 10000 nM on human D2 receptor.
